The text below walks through data of patent publication US12410148B2, “Antibody drug conjugates” (Pharma Mar, S.A., priority 2013, dated 2025).

The test system of one test is SK-OV-3 cells. The experiment in a line: In vitro cytotoxicity, SRB assay, 72 h dose-response. The test is classed as cell-based. Conditions: Homo sapiens. The text has this: (§1) Nature Protocols, 1, 1112-1 116.
For a further test, the system named is HCC-1954 cells. The test is described as above. The test is classed as cell-based. Conditions: Homo sapiens, HCC1954, 72 h.
Text: as §1

In the next test the test system is BT-474 cells. The test is described as above. The test is classed as cell-based. The following applies: Homo sapiens.
Text: as §1

Test [1] concerns Raji cell clones #10 (high CD5) and #18 (null CD5). Nature of the test: In vitro cytotoxicity, the two Raji cell clones. Format: cell-based, human. The following applies: from mean IC50. Here is the method:
J. Immunol. Meth., 65, 55-63.
[…] dose-response (DR) curves for 72 hours were performed.

The subject of another test is SK-BR-3 cells. Nature of the test: In vitro cytotoxicity, SRB assay, 72 h dose-response. The test is classed as cell-based. Conditions: Homo sapiens, SK-BR-3, 72 h.
Test [2] deals with NB4, U937, Raji and RPMI-8226 cells. Nature of the test: In vitro cytotoxicity, whole CD13 cell panel. Conditions: for IC50: Homo sapiens. The text has this:
(§2) All tumor cell lines used in this study were obtained from the American Type Culture Collection (ATCC), unless otherwise indicated; BT-474 (ATCC HTB-20, Breast Ductal Carcinoma), SK-BR-3 (ATCC HTB-30, Breast Adenocarcinoma) and HCC-1954 (ATCC CRL-2338, Breast Ductal Carcinoma), all HER2+; MDA-MB-231 (ATCC HTB-26, Breast Adenocarcinoma) and MCF-7 (ATCC HTB-22 Breast Adenocarcinoma, pleural effusion), all HER2-; SK-OV-3 (ATCC HTB-77, Ovary Adenocarcinoma), HER2+; NB-4 (Acute Promyelocytic Leukemia, APL, CD13+, M. Lanotte et al. (1991) NB4, a maturation inducible cell line with t(15;17) marker isolated from a human acute promyelocytic leukemia (M3). Blood 77, 1080-1086), (CD13+) and U937 (ATCC CRL-1 593.2, Histiocytic Lymphoma, CD13+ and CD4+); Raji (ATCC CCL-86, Burkitt's Lymphoma) (CD13−, CD20+, CD5−, and CD4−); RPMI-8226 (ATCC CRM-CCL-155, Multiple Myeloma) (CD13−, CD20−, CD5− and CD4−); Karpas-299 (DSMZ ACC-31, Non-Hodgkin's Lymphoma) (CD20−, CD5+, and CD4+); MOLT-4 (ATCC CRL-1 582, Acute Lymphoblastic Leukemia, CD5+). In addition, the two Raji cell (ATCC CCL-86, Burkitt's Lymphoma) clones used in this study Raji-clone #10 (high CD5 expression) and Raji-clone18 (null CD5 expression), were provided by Dr. Juan M. Zapata (Instituto de Investigaciones Biomedicas “Alberto Sols”, CSIC-UAM, Madrid, Spain). Cells were maintained at 37° C., 5% CO 2 and 95% humidity in Dulbecco's Modified Eagle's Medium (DMEM) (for MCF and MDA-MB-231 cells), RPMI-1640 (for SK-BR-3, HCC-1954, NB-4, U937, Raji, RPMI-8226, Karpas-299, MOLT-4, Raji-clone #10 and Raji-clone #18 cells), RPMI-1640+1% ITS (for BT-474 cells) or McCOyS (for SK-OV-3 cells), all media supplemented with 10% Fetal Calf Serum (FCS) and 100 units/mL penicillin and streptomycin.
For suspension cells: A standard metabolic assay using MTT (3-(4,5-Dimethylthiazol-2-yl)-2,5-diphenyltetrazolium bromide) was adapted for quantitative measurement of cell growth and cytotoxicity, as described in T. Mosmann (1983) Rapid colorimetric assay for cellular growth and survival: Application to proliferation and cytotoxicity assays. J. Immunol. Meth., 65, 55-63. Briefly, MTT solution was added to the cell cultures at a final concentration of 0.5 mg/mL, and incubated for 1 to 4 hours at 37° C. until formazan crystals are formed. Culture medium is carefully removed from the cell cultures and formazan crystals resuspended in 100 μl DMSO. After mixing to assure solubilization, the quantity of formazan (presumably directly proportional to the number of viable cells) is measured by recording changes in absorbance at 570 nm using a plate reading spectrophotometer. Cell survival was expressed as percentage of control, untreated cell survival.
(§3) The IC50 value refers to the concentration of compound inducing a 50% of cell death as compared to the control cell survival.
The in vitro cytotoxic activity of ADC9 along with the parent cytotoxic Compounds 1 and 4, was evaluated against different human tumor cell lines expressing or not the CD13 receptor, including NB4 and U937 (CD13 positive cells) and Raji and RPMI-8226 (CD13 negative cells). Standard dose-response (DR) curves for 72 hours were performed.

Test [3] has as its system BT-474, HCC-1954, SK-BR-3, MDA-MB-231, MCF-7 and SK-OV-3 cells. The experiment in a line: In vitro cytotoxicity, whole cell panel of Bioactivity Example 1. Format: cell-based. The following applies: Homo sapiens.
Text: as §2
For adherent cells: A colorimetric assay using sulforhodamine B (SRB) was adapted for quantitative measurement of cell growth and cytotoxicity, as described in V. Vichai and K. Kirtikara (2006) Sulforhodamine B colorimetric assay for cytotoxicity screening. Nature Protocols, 1, 1112-1 116. Briefly, cells were seeded in 96-well microtiter plates and allowed to stand for 24 hours in drug-free medium before treatment with vehicle alone or the indicated compounds for 72 hours. For quantification, cells were washed twice with phosphate buffered saline (PBS), fixed for 15 min in 1% glutaraldehyde solution, rinsed twice with PBS, stained in 0.4% SRB-1% acetic acid solution for 30 min, rinsed several times with 1% acetic acid solution and air-dried. SRB was then extracted in 10 mM trizma base solution and the optical density measured at 490 nm in a microplate spectrophotometer. Cell survival was expressed as percentage of control, untreated cell survival. […]

In another test the test system is NB-4 cells. Nature of the test: In vitro cytotoxicity, MTT assay, 72 h dose-response. Format: cell-based. Conditions: Homo sapiens, CD13+.
The next test has as its system Raji cells. The description is as above. Format: cell-based, human. The following applies: CD13−, CD20+, CD5−, CD4−.
In test [4] the test system is HCC-1954, SK-BR-3, MDA-MB-231 and MCF-7 cells. The experiment in a line: In vitro cytotoxicity, whole breast cancer cell panel.
Text: as §2
For adherent cells: A colorimetric assay using sulforhodamine B (SRB) was adapted for quantitative measurement of cell growth and cytotoxicity, as described in V. Vichai and K. Kirtikara (2006) Sulforhodamine B colorimetric assay for cytotoxicity screening. Nature Protocols, 1, 1112-1 116. Briefly, cells were seeded in 96-well microtiter plates and allowed to stand for 24 hours in drug-free medium before treatment with vehicle alone or the indicated compounds for 72 hours. For quantification, cells were washed twice with phosphate buffered saline (PBS), fixed for 15 min in 1% glutaraldehyde solution, rinsed twice with PBS, stained in 0.4% SRB-1% acetic acid solution for 30 min, rinsed several times with 1% acetic acid solution and air-dried. SRB was then extracted in 10 mM trizma base solution and the optical density measured at 490 nm in a microplate spectrophotometer. Cell survival was expressed as percentage of control, untreated cell survival.
as §3
Standard dose-response (DR) curves for 72 hours were performed.

The mark [5] stands for this setting: read-out: IC50 values across the different cell lines tested (range).
The mark [6] stands for this setting: read-out: mean IC50 value across the whole cell panel.

Values after ≈ are worked out from the molar mass of the structure shown. Values joined by “and” are separate entries in the source; they are usually repeats but may differ in a detail not shown here. Identical values can stand only once. Like-named read-outs stand apart in the source and are kept apart here.

Description for NB-4 cells: (§4) Briefly, MTT solution was added to the cell cultures at a final concentration of 0.5 mg/mL, and incubated for 1 to 4 hours at 37° C. until formazan crystals are formed. Culture medium is carefully removed from the cell cultures and formazan crystals resuspended in 100 μl DMSO. […] Cell survival was expressed as percentage of control, untreated cell survival.
Description for Raji cells: as §4
Text for SK-BR-3 cells: All tumor cell lines used in this study were obtained from the American Type Culture Collection (ATCC), unless otherwise indicated; BT-474 (ATCC HTB-20, Breast Ductal Carcinoma), SK-BR-3 (ATCC HTB-30, Breast Adenocarcinoma) and HCC-1954 (ATCC CRL-2338, Breast Ductal Carcinoma), all HER2+; MDA-MB-231 (ATCC HTB-26, Breast Adenocarcinoma) and MCF-7 (ATCC HTB-22 Breast Adenocarcinoma, pleural effusion), all HER2-; SK-OV-3 (ATCC HTB-77, Ovary Adenocarcinoma), HER2+; NB-4 (Acute Promyelocytic Leukemia, APL, CD13+, M. Lanotte et al. (1991) NB4, a maturation inducible cell line with t(15;17) marker isolated from a human acute promyelocytic leukemia (M3). […] Cells were maintained at 37° C., 5% CO 2 and 95% humidity in Dulbecco's Modified Eagle's Medium (DMEM) (for MCF and MDA-MB-231 cells), RPMI-1640 (for SK-BR-3, HCC-1954, NB-4, U937, Raji, RPMI-8226, Karpas-299, MOLT-4, Raji-clone #10 and Raji-clone #18 cells), RPMI-1640+1% ITS (for BT-474 cells) or McCOyS (for SK-OV-3 cells), all media supplemented with 10% Fetal Calf Serum (FCS) and 100 units/mL penicillin and streptomycin.
For adherent cells: A colorimetric assay using sulforhodamine B (SRB) was adapted for quantitative measurement of cell growth and cytotoxicity, as described in V. Vichai and K. Kirtikara (2006) Sulforhodamine B colorimetric assay for cytotoxicity screening. […] Briefly, cells were seeded in 96-well microtiter plates and allowed to stand for 24 hours in drug-free medium before treatment with vehicle alone or the indicated compounds for 72 hours. For quantification, cells were washed twice with phosphate buffered saline (PBS), fixed for 15 min in 1% glutaraldehyde solution, rinsed twice with PBS, stained in 0.4% SRB-1% acetic acid solution for 30 min, rinsed several times with 1% acetic acid solution and air-dried. SRB was then extracted in 10 mM trizma base solution and the optical density measured at 490 nm in a microplate spectrophotometer. Cell survival was expressed as percentage of control, untreated cell survival.

On to `COC1=CC[C@@H]([C@@H](C)/C=C(C)/C=C\C=C/C(=O)N[C@H](C(=O)N/C=C\C[C@H](C/C=C(\C)Cl)OC(=O)NCCCNC(=O)CCCCCN2C(=O)C=CC2=O)C(C)(C)C)OC1=O` [Compound 1], for which the IC50 is 0.0057 µg/mL and 6.66 nM in the test on SK-OV-3 cells (SK-OV-3, 72 h); 0.00096 µg/mL and 1.12 nM in the test with HCC-1954 cells (HER2+, 72 h, read-out: IC50); 0.0064 µg/mL and 7.47 nM in the test with BT-474 cells (BT-474, 72 h); 0.00089 µg/mL and 1.04 nM in the test on SK-BR-3 cells (HER2+, 72 h, read-out: IC50); 0.0008 µg/mL to 0.0063 µg/mL and 0.94 nM to 7.3 nM in [2] (setting [5]); 0.0028 µg/mL and 3.3 nM in [2] (setting [6]). The IC50 in test [3] (read-out: IC50 values along the different cell lines tested (range)) is 0.00089 µg/mL to 0.0064 µg/mL and 1.04 nM to 7.47 nM; in test [3] (setting [6]) it was 0.00341 µg/mL and 3.98 nM; with NB-4 cells it was 0.000805 µg/mL and 0.939 nM. Also, the “more active in CD5 overexpressing cells (clone #10) than in CD5 null cells (clone #18)” value in test [1] is on record as “around 1 log”.

Turning to `COC1=CC[C@@H]([C@@H](C)/C=C(C)/C=C\C=C/C(=O)N[C@H](C(=O)N/C=C\C[C@H](C/C=C(\C)Cl)OC(=O)NCCCN)C(C)(C)C)OC1=O` [Compound 4], the IC50 with SK-OV-3 cells (SK-OV-3, ovary, HER2+, 72 h, read-out: IC50) was 0.00073 µg/mL and 1.1 nM; in the test on BT-474 cells (BT-474, HER2+, 72 h, read-out: IC50) it was 0.00174 µg/mL and 2.62 nM; in [2] (setting [5]), 7.9e-05 µg/mL to 0.00265 µg/mL and 0.12 nM to 4 nM; in test [2] (setting [6]), 0.00084 µg/mL and 1.2 nM; in test [3] (six cell lines, read-out: mean IC50 value across the whole cell panel), 0.000569 µg/mL and 0.857 nM; in test [3] (six cell lines, two independent experiments, read-out: IC50 values along the different cell lines tested (range)), 0.089 to 1.7 ng/mL (≈ 0.134 to 2.56 nM). The IC50 was 0.00141 µg/mL with Raji cells; 2.12 nM in the test on Raji cells (read-out: IC50); 0.00265 µg/mL and 4 nM with Raji cells (Homo sapiens, Raji, read-out: IC50); 0.000197 µg/mL and 0.296 nM in test [4] (Homo sapiens, read-out: mean IC50 value across the whole cell panel, four breast cell lines); 0.498 nM in test [4] (read-out: mean IC50 value across the whole cell panel, four breast cell lines); 7.9e-05 µg/mL and 0.12 nM in the test on NB-4 cells. For the same compound, the “mean IC50 value across the whole cell panel” value came out at 1.2 nM in test [2] (CD13+ and CD13− lines); 0.33 ng/mL in [4] (four breast cell lines).

Turning to `COC1=CC[C@@H]([C@@H](C)/C=C(C)/C=C\C=C/C(=O)N[C@H](C(=O)N/C=C\C[C@H](C/C=C(\C)Cl)OC(N)=O)C(C)(C)C)OC1=O` [Compound 40], the IC50 is 7.1e-05 µg/mL and 0.116 nM in the test on HCC-1954 cells; 4.9e-05 µg/mL and 0.081 nM with SK-BR-3 cells; 0.031 to 0.17 ng/mL (≈ 0.0511 to 0.28 nM) in test [2] (setting [5]); 8.6e-05 µg/mL and 0.14 nM in test [2] (setting [6]); 0.000115 µg/mL and 0.000285 µg/mL in the test with Raji cells; 0.19 nM and 0.47 nM in the test with Raji cells (read-out: IC50). In addition, the 50% inhibitory concentration (IC50) in [4] (Homo sapiens, read-out: IC50 values along the different cell lines tested (range)) was 0.049 to 0.173 ng/mL; in [4] (Homo sapiens, read-out: mean IC50 value across the whole cell panel), 0.000106 µg/mL and 0.175 nM; in the test on NB-4 cells it was 3.1e-05 µg/mL and 0.052 nM.
